From BigSolDB 2.1

Settings: in water

NCCS(=O)(=O)O
Settings | solubility (mole fraction)
278.15 K | 0.00667
283.15 K | 0.00809
288.15 K | 0.0101
293.15 K | 0.0121
298.15 K | 0.0141
303.15 K | 0.0172
308.15 K | 0.0202
313.15 K | 0.0232
318.15 K | 0.0264
323.15 K | 0.0318
